{
  "source": "patent US20060234378A1",
  "about": "“Molecular switch regulating neurogenesis” (The Salk Institute For Biological Studies, priority 2005, published 2006)",
  "test_system": "NeuroD1 and NeuroD2 genes",
  "assay": "RT PCR of NeuroD genes after TSA and 5AzaC treatment of adult hippocampal neural stem cells",
  "type": "cell-based, rat",
  "settings": "5 nM for 2 days",
  "experimental": "To determine whether either of these mechanisms contributed to repression of the NeuroD promoter, adult hippocampal neural stem cells were treated with either an HDAC inhibitor, trichostatin A (TSA), or with the de-methylation reagent 5′-aza-cytidine (5AzaC). Total RNA was extracted from cells that had been treated with 5 nM TSA for 2 days and with 3 μM 5AzaC for 4 days. RT PCR analysis was performed with specific primers for NeuroD1 (SEQ ID NOs:7 and 8) and NeuroD2 (SEQ ID NOs:9 and 10) genes and a control gene, GAPDH (SEQ ID NOs:3 and 4).",
  "data": [
    {"smiles": "CC(/C=C/C(=O)NO)=C\\[C@@H](C)C(=O)c1ccc(N(C)C)cc1", "note": "[TSA, trichostatin A]", "values": [
      {"measurement": "expression of GAPDH (control gene)", "value": "no effects"},
      {"measurement": "endogenous expression levels of mRNAs of NeuroD1 and NeuroD2", "setting": "compared with untreated progenitor cultures", "value": "increased"}
    ]}
  ]
}
